# According to patent US8030354B2, “Substituted biphenyl GPR40 modulators” (Amgen Inc., priority 2007, dated 2011):
# What was measured:
# [1] = target: T1, GPR40 (Homo sapiens, UniProt O14842); experiment: Cell-based aequorin assay (CHO cells stably expressing GPR40 and aequorin); parameters: expressed in transfected cells; host or cells: CHO cells stably transfected with GPR40 and aequorin; conditions: activation of human GPR40, CHO cells, 0.01% HSA
# Summary of the method: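 CHO cells stably co-expressing GPR40 and aequorin, loaded with coelenterazine (1 ug/mL, 2 h, room temperature) in H/HBSS with 20 mM Hepes and 0.01% fatty acid-free HSA. Serially diluted compounds added; luminescence recorded over 20 s. EC50 from dose-response of maximum relative light units.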
# [2] = target: T1, GPR40; experiment: Inositol phosphate accumulation assay (A9_GPR40 cells); type: cell-based; parameters: expressed in transfected cells; host or cells: CHO cells stably transfected with GPR40 and aequorin; conditions: inositol phosphate assay, A9_GPR40 cells, 1 hour; read-out: IP3 EC50
# Summary of the method: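 [^3H] inositol phosphate accumulation was measured by SPA after 1 h compound exposure at 37° C in HBSS/10 mM LiCl containing HSA, ending with a 20 mM formic acid quench. The GPR40-transfected A9 cells had first been labelled overnight (16 h) with 1 μCi/mL ^3H-inositol.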
# T1 sequence (O14842 whole entry): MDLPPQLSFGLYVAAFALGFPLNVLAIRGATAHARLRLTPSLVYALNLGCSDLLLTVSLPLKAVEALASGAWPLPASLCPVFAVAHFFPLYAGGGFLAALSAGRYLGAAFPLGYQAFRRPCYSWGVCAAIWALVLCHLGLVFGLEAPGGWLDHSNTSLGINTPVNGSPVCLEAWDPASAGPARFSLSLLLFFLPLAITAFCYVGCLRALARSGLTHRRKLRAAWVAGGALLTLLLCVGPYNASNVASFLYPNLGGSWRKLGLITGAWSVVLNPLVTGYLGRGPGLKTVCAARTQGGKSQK
SMILES,EC50 [1] [nM],EC50 [2] [nM]
"COc1ccc(F)c(-c2ccc(COc3cccc([C@@H](CC(=O)O)CC4CC4)c3)cc2[C@H]2OCCC2(C)C)c1 (single isomer, unassigned) [Example 69.44]",100 to 1000,10 to 100
"CCC(CC(=O)O)c1cccc(OCc2ccc(-c3cc(OC)ccc3F)c(C(C)C(C)(C)C)c2)c1F (single isomer, unassigned) [Example 77.5]",100 to 1000,< 10
"CCC(CC(=O)O)c1cccc(OCc2cc(C3CCCC3(C)C)c(-c3cc(OC)ccc3F)cc2F)c1F (single isomer, unassigned) [Example 77.6]",100 to 1000,< 10
"CC[C@H](CC(=O)O)c1cccc(OCc2ccc(-c3cc(C(F)F)ccc3F)c(C3=CCCC3(C)C)c2)c1F (single isomer, unassigned) [Example 77.7, (3R)-3-(3-(((5′-(Difluoromethyl)-2-(5,5-dimethyl-1-cyclopenten-1-yl)-2′-fluoro-1,1′-biphenyl-4-yl)methyl)oxy)-2-fluorophenyl)pentanoic acid or (3S)-3-(3-(((5′-(difluoromethyl)-2-(5,5-dimethyl-1-cyclopenten-1-yl)-2′-fluoro-1,1′-biphenyl-4-yl)methyl)oxy)-2-fluorophenyl)pentanoic acid]",1000 to 10000,100 to 1000
"CCC(CC(=O)O)c1cccc(OCc2ccc(-c3cc(OC)ccc3F)c(C3CCCCC3(C)C)c2)c1F (single isomer, unassigned) [Example 77.8]",100 to 1000,< 10
"CCC(CC(=O)O)c1cccc(OCc2ccc(-c3cc(OC)ncc3F)c(C3CCCC3(C)C)c2)c1F (single isomer, unassigned) [Example 77.9]",100 to 1000,< 10
"CCC(CC(=O)O)c1cccc(OCc2ccc(-c3cc(OC)ncc3F)c(C(OC)C(C)(C)C)c2)c1F (single isomer, unassigned) [Example 77.10]",100 to 1000,< 10
"CCC(CC(=O)O)c1cccc(OCc2ccc(-c3cc(OC)ncc3F)c(C(O)(C(C)(C)C)C(C)(C)C)c2)c1F (single isomer, unassigned) [Example 77.11, (3R)-3-(3-(4-(5-Fluoro-2-methoxypyridin-4-yl)-3-(3-hydroxy-2,2,4,4-tetramethylpentan-3-yl)benzyloxy)-2-fluorophenyl)pentanoic acid or (3R)-3-(3-(4-(5-fluoro-2-methoxypyridin-4-yl)-3-(3-hydroxy-2,2,4,4-tetramethylpentan-3-yl)benzyloxy)-2-fluorophenyl)pentanoic acid]",100 to 1000,< 10
"CC[C@H](CC(=O)O)c1cccc(OCc2ccc(-c3cc(OC)ccc3F)c([C@H]3CCCC3(C)C)c2)c1 (single isomer, unassigned) [Example 78.4]",10 to 100,< 10

# The remaining lines, values ahead:
EC50 [1] [nM],EC50 [2] [nM],SMILES
100 to 1000,< 10,"C=CC(C)(C)C(OC)c1cc(COc2cccc(C(CC(=O)O)CC3CC3)c2)ccc1-c1cc(OC)ccc1F (single isomer, unassigned) [Example 69.38]"
100 to 1000,< 10,"CCC(C)(C)C(OC)c1cc(COc2cccc(C(CC(=O)O)CC3CC3)c2)ccc1-c1cc(OC)ccc1F (single isomer, unassigned) [Example 69.42]"
100 to 1000,10 to 100,"COc1cccc(-c2ccc(COc3cccc(C(CC(=O)O)C4CCC4)c3)cc2C(C)(C)C)c1 (single isomer, unassigned) [Example 70.1, (3S)-3-Cyclobutyl-3-(3-(((2-(1,1-dimethylethyl)-3′-(methyloxy)-1,1′-biphenyl-4-yl)methyl)oxy)phenyl)propanoic acid or (3R)-3-cyclobutyl-3-(3-(((2-(1,1-dimethylethyl)-3′-(methyloxy)-1,1′-biphenyl-4-yl)methyl)oxy)phenyl)propanoic acid]"
100 to 1000,10 to 100,"COc1ccc(F)c(-c2ccc(COc3cccc(C(CC(=O)O)C4CCC4)c3)cc2C2=CCCC2(C)C)c1 (single isomer, unassigned) [Example 70.2, (3S)-3-Cyclobutyl-3-(3-(((2-(5,5-dimethyl-1-cyclopenten-1-yl)-2′-fluoro-5′-(methyloxy)-1,1′-biphenyl-4-yl)methyl)oxy)phenyl)propanoic acid or (3R)-3-cyclobutyl-3-(3-(((2-(5,5-dimethyl-1-cyclopenten-1-yl)-2′-fluoro-5′-(methyloxy)-1,1′-biphenyl-4-yl)methyl)oxy)phenyl)propanoic acid]"
100 to 1000,10 to 100,"COc1ccc(F)c(-c2ccc(COc3cccc(C(CC(=O)O)C4CCC4)c3)cc2C(C)(C)C)c1 (single isomer, unassigned) [Example 70.3, (3S)-3-Cyclobutyl-3-(3-(((2-(1,1-dimethylethyl)-2′-fluoro-5′-(methyloxy)-1,1′-biphenyl-4-yl)methyl)oxy)phenyl)propanoic acid or (3R)-3-cyclobutyl-3-(3-(((2-(1,1-dimethylethyl)-2′-fluoro-5′-(methyloxy)-1,1′-biphenyl-4-yl)methyl)oxy)phenyl)propanoic acid]"
100 to 1000,100 to 1000,"CCCCOc1cc(COc2cccc(C(CC(=O)O)C3CCC3)c2)ccc1-c1cc(OC)ccc1F (single isomer, unassigned) [Example 70.4, (3S)-3-(3-(((2-(Butyloxy)-2′-fluoro-5′-(methyloxy)-1,1′-biphenyl-4-yl)methyl)oxy)phenyl)-3-cyclobutylpropanoic acid or (3R)-3-(3-(((2-(butyloxy)-2′-fluoro-5′-(methyloxy)-1,1′-biphenyl-4-yl)methyl)oxy)phenyl)-3-cyclobutylpropanoic acid]"
100 to 1000,100 to 1000,"CCCCOc1cc(COc2cccc(C(CCCC)CC(=O)O)c2)ccc1-c1cc(OC)ccc1F (single isomer, unassigned) [Example 71.2, (3R)-3-(3-(((2-(Butyloxy)-2′-fluoro-5′-(methyloxy)-1,1′-biphenyl-4-yl)methyl)oxy)phenyl)heptanoic acid or (3S)-3-(3-(((2-(butyloxy)-2′-fluoro-5′-(methyloxy)-1,1′-biphenyl-4-yl)methyl)oxy)phenyl)heptanoic acid]"
100 to 1000,10 to 100,"CCCCC(CC(=O)O)c1cccc(OCc2ccc(-c3cc(OC)ccc3F)c(C3=CCCC3(C)C)c2)c1 (single isomer, unassigned) [Example 71.3, (3R)-3-(3-(((2-(5,5-Dimethyl-1-cyclopenten-1-yl)-2′-fluoro-5′-(methyloxy)-1,1′-biphenyl-4-yl)methyl)oxy)phenyl)heptanoic acid or (3S)-3-(3-(((2-(5,5-dimethyl-1-cyclopenten-1-yl)-2′-fluoro-5′-(methyloxy)-1,1′-biphenyl-4-yl)methyl)oxy)phenyl)heptanoic acid]"
100 to 1000,10 to 100,"CCC(CC(=O)O)c1cc(OCc2ccc(-c3cc(OC)ccc3F)c(C3=CCCC3(C)C)c2)ccc1F (single isomer, unassigned) [Example 76.1, (3R)-3-(5-(((2-(5,5-Dimethyl-1-cyclopenten-1-yl)-2′-fluoro-5′-(methyloxy)-1,1′-biphenyl-4-yl)methyl)oxy)-2-fluorophenyl)pentanoic acid or (3S)-3-(5-(((2-(5,5-dimethyl-1-cyclopenten-1-yl)-2′-fluoro-5′-(methyloxy)-1,1′-biphenyl-4-yl)methyl)oxy)-2-fluorophenyl)pentanoic acid]"
100 to 1000,10 to 100,"CCC(CC(=O)O)c1cc(OCc2ccc(-c3cc(OC)ccc3F)c(C3CCCC3(C)C)c2)ccc1F (single isomer, unassigned) [Example 76.3]"
100 to 1000,10 to 100,"CCC(CC(=O)O)c1cccc(OCc2ccc(-c3cc(OC)ccc3F)c(C3=CCCC3(C)C)c2)c1F (single isomer, unassigned) [Example 77.1, (3R)-3-(3-(((2-(5,5-Dimethyl-1-cyclopenten-1-yl)-2′-fluoro-5′-(methyloxy)-1,1′-biphenyl-4-yl)methyl)oxy)-2-fluorophenyl)pentanoic acid or (3S)-3-(3-(((2-(5,5-dimethyl-1-cyclopenten-1-yl)-2′-fluoro-5′-(methyloxy)-1,1′-biphenyl-4-yl)methyl)oxy)-2-fluorophenyl)pentanoic acid]"
100 to 1000,100 to 1000,"CCC(CC(=O)O)c1cccc(OCc2ccc(-c3cc(OC)ccc3F)c(C(C)(C)C)c2)c1F (single isomer, unassigned) [Example 77.2, (3R)-3-(3-(((2-(1,1-Dimethylethyl)-2′-fluoro-5′-(methyloxy)-1,1′-biphenyl-4-yl)methyl)oxy)-2-fluorophenyl)pentanoic acid or (3S)-3-(3-(((2-(1,1-dimethylethyl)-2′-fluoro-5′-(methyloxy)-1,1′-biphenyl-4-yl)methyl)oxy)-2-fluorophenyl)pentanoic acid]"
100 to 1000,< 10,"CCC(CC(=O)O)c1cccc(OCc2ccc(-c3cc(OC)ccc3F)c(C(OC)C(C)(C)C)c2)c1F (single isomer, unassigned) [Example 77.4]"
10 to 100,< 10,"CCC(CC(=O)O)c1cccc(OCc2ccc(-c3cccc(OC)c3)c(C3CCCC3(C)C)c2)c1 (single isomer, unassigned) [Example 78.6]"
